Source: patent publication US20240114902A1, “COMPOSITIONS AND METHODS FOR DETERRING OVIPOSITION BY FRUIT FLIES” (The United States of America, as represented by The …, priority 2022, published 2024)

Key:
[1] = tested on: Drosophila suzukii (SWD); test: SWD laboratory two-choice oviposition bioassay on raspberries; type: in vivo; design: key to Behavioral activity (SWD oviposition group): Negative: “SWD negative” compounds (i.e., SWD oviposition was reduced); Neutral: “SWD neutral” compounds (i.e., no effect on oviposition); conditions: for Behavioral activity (SWD oviposition group): individual CFA component; for Behavioral activity (SWD oviposition group) / effect on SWD oviposition vs control / eggs oviposited among all treated raspberries: two-choice; for reduced SWD oviposition / SWD oviposition deterrence / effect on SWD oviposition vs control / eggs oviposited among all treated raspberries: individual compound; for reduced SWD oviposition: 0.2 mg dose; for SWD oviposition deterrence: 2 mg dose; for effect on SWD oviposition vs control / eggs oviposited among all treated raspberries: 20 mg dose
Description: Laboratory choice test 1 Oviposition bioassays were conducted at USDA-ARS in Hilo, Hawaii using a laboratory two-choice cage experimental set-up with organic raspberries purchased from a local grocery as an oviposition substrate. For all laboratory assays listed below, the receptacles of the raspberries were stuffed with cotton to prevent flies from ovipositing on the interior of the fruit as described previously in Cha D H et al. (2021, supra). The two-choice oviposition bioassay was conducted over 24 hours in screened cages (30 cm W×30 cm L×30 cm H; BugDorm-2120 Insect tent; shop.bugdorm.com) with 30 female and 10 male SWD (7-8 days old) released per cage. Each cage was provided with cotton moistened with water in a 20 mL deli cup and two 30 mL deli cups; one with two raspberries treated with CFA diluted in hexane and the other with two raspberries treated with hexane only. Each raspberry was surface-treated either with 200 μL of hexane or 200 μL of CFA in one of three doses (20, 2, or 0.2 mg CFA/200 μL hexane), placed into a fume hood for 10 minutes or until used in the bioassay. The deli cups with the treated berries were positioned in the center of the floor of the screened cage, 17 cm apart from each other. Female flies were allowed to oviposit on the surface of raspberries for 24 hours. At the conclusion of the bioassay, each 30 mL deli cup containing two raspberries was moved into a 600 mL deli cup with a mesh cap, held for 8 days (22.1±1.9° C., 71.7±3.1% RH, 16:8 L:D), when the number of larvae and pupae were counted. The experiment was replicated four times per treatment. Laboratory choice test 2 A series of bioassays were conducted in Hilo, Hawaii to identify key bioactive deterrent components of CFA for SWD using the same two-choice bioassay described above. […] Due to solubility differences, ethanol was used as control and for dilution of C16:0 and C18:0, while hexane was used as control and for dilution of the other six compounds tested. Based on the outcome of these bioassays, the eight free fatty acid components of CFA were grouped into two groups; “SWD negative” compounds (i.e., SWD oviposition was reduced) and “SWD neutral” compounds (i.e., no effect on oviposition), and tested whether the blend of “SWD negative” compounds had the same oviposition deterrence as the CFA at their equivalent concentrations as in CFA (see Table 2). The oviposition deterrence of the blend of “SWD negative” compounds was first compared to hexane at three different doses (20, 2 and 0.2 mg CFA equivalent/raspberry) and subsequently compared to CFA at 2 mg equivalent dose.

[2] = tested on: Drosophila suzukii (SWD); test: SWD laboratory no-choice oviposition test on raspberries; type: in vivo; conditions: 20 mg CFA or 20 mg CFA equivalent dose, 24 hours
Description: Laboratory no-choice test The oviposition deterrence of the key-component blend determined from the “Laboratory choice test 2” described above (2c blend composed of C8:0 and C10:0; Table 2) was tested using a no-choice bioassay in Geneva, New York, USA using organic raspberries purchased from a local grocery and using 30 cm×30 cm×30 cm screened cages as described above. Each cage held four raspberries on a 10 cm diameter glass petri dish lined with filter paper and assigned to one of five treatments: 1) 20 mg of CFA/200 μL hexane/raspberry, 2) C8:0 at 20 mg CFA equivalent dose/200 μL hexane/raspberry, 3) C10:0 at 20 mg CFA equivalent dose/200 μL hexane/raspberry, 4) 2c blend at 20 mg CFA equivalent dose/200 μL hexane/raspberry, or 5) 200 μL of hexane control/raspberry (see Table 2 for equivalent doses). Twenty SWD females (5 days old) were released into each cage and allowed to oviposit on raspberries over 24 hours in an environmental chamber (25° C., 55% RH, 16:8 L:D). At the end of each trial, the raspberries were inspected under a dissecting microscope and the eggs were counted. The experiment was replicated eight times per treatment.

Compound | Behavioral activity (SWD oviposition group) [1] | reduced SWD oviposition [1] | SWD oviposition deterrence [1] | effect on SWD oviposition vs control [1] | eggs oviposited among all treated raspberries [1] | effect on SWD oviposition vs solvent control [2]
CCCCCCCC(=O)O [C8:0, caprylic acid] | Negative | not detected | maintained oviposition deterrence | almost completely inhibited oviposition | zero | significantly reduced SWD oviposition
CCCCCCCCCC(=O)O [C10:0, capric acid] | Negative | not detected | maintained oviposition deterrence | almost completely inhibited oviposition | one | significantly reduced SWD oviposition
